Among the test systems are U251 CNS; OVCAR-8 ovarian; HOP-62 NSCLC; SK-MEL-5 melanoma; MOLT-4 leukemia; HCT-15 colon; SF-268 CNS; HCC-2998 colon; HCT-116 colon; HOP-92 NSCLC.
Common to all, as to experiment: NCI anticancer screen, dose series, 48 h

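Each compound was tested at five concentrations against cells in 96-well plates for 48 hours. GI50: concentration for 50% inhibition of growth. The concentration for full growth arrest is given as TGI.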 Bounds are passed on as bounds.

Regarding `COc1ccc(S(=O)(=O)NNS(C)(=O)=O)cc1OC`, the TGI with U251 CNS, in the experiment with OVCAR-8 ovarian, in the experiment with HOP-62 NSCLC, with SK-MEL-5 melanoma, in the experiment with MOLT-4 leukemia and in the experiment with HCT-15 colon was more than 100 µM each time. Moreover, the TGI in the experiment on SF-268 CNS and with HCC-2998 colon was more than 100 µM in each case.

Consider `COc1cc2ccc(CC(=O)O)cc2cc1OC`, for which the TGI in the experiment with HCT-116 colon, in the experiment on U251 CNS, with OVCAR-8 ovarian, with HOP-62 NSCLC, in the experiment with SK-MEL-5 melanoma and in the experiment on MOLT-4 leukemia was more than 100 µM throughout. The TGI with HCT-15 colon, in the experiment on SF-268 CNS and in the experiment with HCC-2998 colon was more than 100 µM throughout.

Consider `CN(C)CCC(/C=C/c1ccccc1)=N\Nc1c(F)c(F)c(F)c(F)c1F`, for which the TGI is more than 100 µM with HCT-116 colon; more than 100 µM in the experiment with U251 CNS; more than 100 µM with OVCAR-8 ovarian; more than 100 µM with HOP-62 NSCLC; 28.8 µM in the experiment with SK-MEL-5 melanoma; more than 100 µM in the experiment on MOLT-4 leukemia. In addition, the TGI in the experiment on HCT-15 colon and in the experiment on SF-268 CNS was more than 100 µM each time.

Turning to `Cc1ccccc1NC(=O)C(=O)CC(=O)c1sc(-n2nc(-c3ccccc3)cc2-c2ccccc2)nc1C`, the TGI with HCT-116 colon, with U251 CNS, in the experiment on OVCAR-8 ovarian, in the experiment with HOP-62 NSCLC, in the experiment on MOLT-4 leukemia and in the experiment with HOP-92 NSCLC was more than 100 µM each time. For the same molecule, the TGI with HCT-15 colon, with SF-268 CNS and in the experiment with HCC-2998 colon was more than 100 µM each time.

As for `O=C(Nc1c(Cl)cc([N+](=O)[O-])cc1Cl)C(=O)C(C(=O)c1ccncc1)C1OC(=O)c2ccccc21` (configuration not stated), the TGI in the experiment on HCT-116 colon, in the experiment on U251 CNS, in the experiment with OVCAR-8 ovarian, with HOP-62 NSCLC, in the experiment on MOLT-4 leukemia and in the experiment on HOP-92 NSCLC was more than 100 µM in each case. The TGI in the experiment with HCT-15 colon, in the experiment with SF-268 CNS and in the experiment with HCC-2998 colon was more than 100 µM throughout.

For `CC[C@]1(O)C[C@@H]2CN(CCc3c([nH]c4ccccc34)[C@@](C(=O)OC)(c3cc4c(cc3OC)N(C)[C@H]3[C@@](O)(C(=O)OC)[C@H](OC(=O)CCCBr)[C@]5(CC)C=CCN6CC[C@]43[C@@H]65)C2)C1`, the GI50 in the experiment on HCT-116 colon was less than 0.01 µM; in the experiment on U251 CNS, 0.0334 µM; with OVCAR-8 ovarian it was less than 0.0209 µM; in the experiment on HOP-62 NSCLC, 0.0386 µM; with MOLT-4 leukemia, 0.026 µM; with HOP-92 NSCLC, 0.0877 µM. Further, the GI50 in the experiment on HCT-15 colon was 0.12 µM; in the experiment on SF-268 CNS it was 0.197 µM; with HCC-2998 colon it was 0.0132 µM. For the same molecule, the TGI was more than 32.4 µM in the experiment with HCT-116 colon; more than 100 µM with U251 CNS; more than 100 µM with OVCAR-8 ovarian; more than 100 µM with HOP-62 NSCLC; more than 100 µM in the experiment with MOLT-4 leukemia; 3.53 µM with HOP-92 NSCLC. Moreover, the TGI is more than 100 µM in the experiment on HCT-15 colon, 17.5 µM with SF-268 CNS and 1.31 µM with HCC-2998 colon.

Turning to `CSc1ccc2c(c1)N(CCCN(C)C)c1ccccc1S2`, the TGI with HCT-116 colon came to 26.9 µM; in the experiment on U251 CNS it was 27.1 µM; in the experiment on OVCAR-8 ovarian, 36.1 µM; in the experiment with HOP-62 NSCLC, 28.4 µM; in the experiment on SK-MEL-5 melanoma it was 25.4 µM; with MOLT-4 leukemia, 20 µM. Further, the TGI was 26.8 µM in the experiment on HOP-92 NSCLC, 30.4 µM in the experiment on HCT-15 colon and 27.2 µM with SF-268 CNS.

As to `COc1cc2c(c(OC)c1OC)-c1ccc(SC)c(=O)cc1C(CC(=O)Oc1ccccc1F)C2` (configuration not stated), the TGI was 0.0644 µM in the experiment with HCT-116 colon; 0.108 µM in the experiment on U251 CNS; more than 7.5 µM with OVCAR-8 ovarian; more than 7.5 µM with HOP-62 NSCLC; more than 7.5 µM in the experiment on MOLT-4 leukemia; more than 7.5 µM with HOP-92 NSCLC. The TGI in the experiment on HCT-15 colon is 0.248 µM; in the experiment on SF-268 CNS, more than 7.5 µM; in the experiment on HCC-2998 colon it was 0.373 µM.

Consider `Cc1cn([C@H]2CN(O)C[C@@H](CO)O2)c(=O)[nH]c1=O`, for which the TGI with HCT-116 colon, in the experiment on U251 CNS, in the experiment with OVCAR-8 ovarian, with HOP-62 NSCLC, with SK-MEL-5 melanoma and in the experiment on MOLT-4 leukemia was more than 100 µM in each case. The TGI in the experiment with HCT-15 colon, with SF-268 CNS and with HCC-2998 colon was more than 100 µM each time.

Consider `Cc1cc(=O)[nH]c2c1C(=O)c1c(C)cc(=O)n(C)c1C2=O`, for which the TGI with HCT-116 colon is 0.253 µM; in the experiment with U251 CNS, 0.242 µM; in the experiment with OVCAR-8 ovarian it was 0.207 µM; in the experiment on HOP-62 NSCLC it was 0.0999 µM; in the experiment with SK-MEL-5 melanoma, 0.0284 µM; with MOLT-4 leukemia, more than 3.56 µM. Also, the TGI in the experiment with HCT-15 colon was determined as 0.264 µM; in the experiment with SF-268 CNS it was 0.465 µM; in the experiment with HCC-2998 colon, 0.058 µM.

In the case of `Cc1cc(N(CCC#N)CCC#N)ccc1/C=C1N=C(/C=C\c2ccccc2)N(c2ccc(C(=O)O)cc2)C\1=O`, the TGI in the experiment with HCT-116 colon, in the experiment with U251 CNS, with OVCAR-8 ovarian, with HOP-62 NSCLC, in the experiment with SK-MEL-5 melanoma and with MOLT-4 leukemia was more than 100 µM each time. The TGI in the experiment on HOP-92 NSCLC, with HCT-15 colon and with SF-268 CNS was more than 100 µM throughout.

Consider `NC(=O)N1N=C2c3ccccc3OC[C@H]2[C@@H]1c1ccccc1`, for which the TGI was more than 39.2 µM in the experiment with HCT-116 colon; 28.5 µM in the experiment with U251 CNS; 27.2 µM in the experiment on OVCAR-8 ovarian; more than 100 µM in the experiment on HOP-62 NSCLC; 97.2 µM in the experiment with MOLT-4 leukemia; more than 100 µM in the experiment on HOP-92 NSCLC. The results for the TGI in the experiment on HCT-15 colon, in the experiment with SF-268 CNS and with HCC-2998 colon were more than 81.6 µM, more than 80.4 µM and more than 37.1 µM, respectively.

With `O=C(CC/C(CC(=O)c1ccc(Cl)cc1)=N\O)Nc1cccc(Cl)c1`, the TGI with U251 CNS, in the experiment with OVCAR-8 ovarian, in the experiment on HOP-62 NSCLC, with SK-MEL-5 melanoma, with MOLT-4 leukemia and in the experiment on HCT-15 colon was more than 100 µM each time. Besides, the TGI in the experiment on SF-268 CNS and in the experiment with HCC-2998 colon was more than 100 µM throughout.

As to `Cc1ccc(-n2cc(/C(N)=N/O)c3ccccc3c2=O)cc1`, the TGI in the experiment on HCT-116 colon, in the experiment on U251 CNS, in the experiment on OVCAR-8 ovarian, in the experiment with HOP-62 NSCLC, with SK-MEL-5 melanoma and with MOLT-4 leukemia was more than 100 µM in each case. In addition, the TGI with HCT-15 colon, with SF-268 CNS and in the experiment on HCC-2998 colon was more than 100 µM in each case.
